Test results taken from PMC10608878, “Synthesis and Antiproliferative Activity of 2,6-Disubstituted Imidazo[4,5-b]pyridines Prepared by Suzuki Cross Coupling” (Molecules, 2023).
Counter-ions that a name gives are not always drawn.

Key:
[1] = tested on: LN-229 glioblastoma cells; test: Antiproliferative activity, LN-229 cells; assay type: cell-based, human; details: LN-229, 72 h incubation
Description: (§1) All prepared imidazo[4,5-b]pyridines were tested for their antiproliferative activity against the following cancer cell lines: LN-229—glioblastoma, Capan-1—pancreatic adenocarcinoma, HCT-116—colorectal carcinoma, NCI-H460—lung carcinoma, DND-41—acute lymphoblastic leukemia, HL-60—acute myeloid leukemia, K-562—chronic myeloid leukemia, and Z-138—non-Hodgkin lymphoma cancer cells. An overview of the results is presented in Table 2 as IC50 values (50% inhibitory concentration). An established antitumor drug, etoposide (ETO), was included for comparison.
(§2) For proliferation assays, the human cancer cell lines used in this manuscript, namely Capan-1, HCT-116, NCI-H460, LN-229, HL-60, K-562, and Z-138, were acquired from the American Type Culture Collection (ATCC, Manassas, VA, USA), while the DND-41 cell line was purchased from the Deutsche Sammlung von Mikroorganismen und Zellkulturen (DSMZ Leibniz-Institut, Braunschweig, Germany). Culture media were purchased from Gibco (Gibco Life Technologies, Merelbeke, Belgium) and supplemented with 10% fetal bovine serum (HyClone, Cytiva, Marlborough, MA, USA). Adherent cell lines LN-229, HCT-116, NCI-H460, and Capan-1 cells were seeded in 384-well tissue culture plates (Greiner, Kremsmünster, Austria) at a density between 500 and 1500 cells per well (500 cells per well for Capan-1, 1000 cells per well for LN-229 and HCT-116, and 1500 cells per well for NCI-H460). The cells were treated with seven different concentrations of the test compounds in a 5-fold dilution series ranging from 100 to 0.006 µM after overnight incubation. Suspension cell lines HL-60, K-562, Z-138, and DND-41 were seeded at densities ranging from 2500 to 5500 cells per well (2500 cells per well for HL-60, K-562, and Z-138, and 5500 cells per well for DND-41) in 384-well culture plates containing the test compounds at the same concentration points. All conditions were incubated for 72 h before measuring the cell viability by the CellTiter 96® AQueous Non-Radioactive Cell Proliferation Assay (Promega, Madison, WA, USA) according to the manufacturer’s instructions. After 3 h, absorbance of all conditions was measured at 490 nm using a SpectraMax Plus 384 (Molecular Devices, San Jose, CA, USA), and the OD values were used to calculate the 50% inhibitory concentration (IC50). Compounds were tested in two independent experiments.

[2] = tested on: HL-60 acute myeloid leukemia cells; test: Antiproliferative activity, HL-60 cells; assay type: cell-based, human; details: HL-60, 72 h incubation
Description: as §1, §2

[3] = tested on: NCI-H460 lung carcinoma cells; test: Antiproliferative activity, NCI-H460 cells; assay type: cell-based, human; details: NCI-H460, 72 h incubation
Description: as §1, §2

[4] = tested on: DND-41 acute lymphoblastic leukemia cells; test: Antiproliferative activity, DND-41 cells; assay type: cell-based, human; details: DND-41, 72 h incubation
Description: as §1, §2

[5] = tested on: HCT-116 colorectal carcinoma cells; test: Antiproliferative activity, HCT-116 cells; assay type: cell-based, human; details: HCT-116, 72 h incubation
Description: as §1, §2

[6] = tested on: Capan-1 pancreatic adenocarcinoma cells; test: Antiproliferative activity, Capan-1 cells; assay type: cell-based, human; details: Capan-1, 72 h incubation
Description: as §1, §2

[7] = tested on: Z-138 non-Hodgkin lymphoma cells; test: Antiproliferative activity, Z-138 cells; assay type: cell-based, human; details: Z-138, 72 h incubation
Description: as §1, §2

[8] = tested on: K-562 chronic myeloid leukemia cells; test: Antiproliferative activity, K-562 cells; assay type: cell-based, human; details: K-562, 72 h incubation
Description: as §1, §2

Zika virus (ZIKV) = test: Antiviral CPE assay, ZIKV in VeroE6; assay type: cell-based; details: Zika virus, Vero C1008; VeroE6 host cells
[9] = tested on: Semliki Forest virus (SFV); test: Antiviral CPE assay, SFV in VeroE6; assay type: cell-based; details: Semliki Forest virus, Vero C1008; VeroE6 host cells
yellow fever virus (YFV) = test: microbe, parasite or virus in culture; assay type: cell-based; details: Yellow fever virus, Vero C1008, read-out: Antiviral Activity (EC50) YFV VeroE6
in vitro [10] = details: African green monkey
Sindbis virus (SINDV) = test: Antiviral CPE assay, SINDV in VeroE6; assay type: cell-based; details: Sindbis virus, Vero C1008; VeroE6 host cells
in vitro [11] = details: dog
[12] = tested on: influenza B (B/Ned/537/05); test: Antiviral CPE assay, influenza B in MDCK; assay type: cell-based; details: Influenza B virus; MDCK host cells
[13] = tested on: influenza A/H3N2 (A/HK/7/87); test: Antiviral CPE assay, influenza A/H3N2 in MDCK; assay type: cell-based; details: Influenza A virus, MDCK host cells
[14] = tested on: influenza A/H1N1 (A/Ned/378/05); test: Antiviral CPE assay, influenza A/H1N1 in MDCK; assay type: cell-based; details: Influenza A virus, MDCK host cells
[15] = tested on: respiratory syncytial virus (RSV) A; test: Antiviral CPE assay, RSV in Hep-2; assay type: cell-based; details: human respiratory syncytial virus; Hep-2 host cells
[16] = tested on: herpes simplex virus-1 (HSV-1 KOS); test: Antiviral CPE assay, HSV-1 in HEL 299; assay type: cell-based; details: Human alphaherpesvirus 1; HEL 299 host cells
[17] = tested on: human coronavirus HCoV-NL63; test: Antiviral CPE assay, HCoV-NL63 in Hep3B; assay type: cell-based; details: Hep3B host cells
[18] = tested on: human coronavirus HCoV-229E; test: organism not typed; assay type: cell-based, human coronavirus 229E; details: HEL 299 host cells; read-out: Antiviral Activity (EC50) HCoV 229E HEL 299
[19] = tested on: human coronavirus HCoV-OC43; test: Antiviral CPE assay, HCoV-OC43 in HEL 299; assay type: cell-based; details: Betacoronavirus 1, OC43; HEL 299 host cells

Row | Structure (SMILES) | IC50 ([1]; Homo sapiens, LN-229, 72 h) [µM] | IC50 ([2]; Homo sapiens, HL-60, 72 h) [µM] | IC50 ([3]; Homo sapiens, NCI-H460, 72 h) [µM] | IC50 ([4]; Homo sapiens, DND41, 72 h) [µM] | IC50 ([5]; Homo sapiens, HCT-116, 72 h) [µM] | IC50 ([6]; Homo sapiens, CAPAN-1, 72 h) [µM] | IC50 ([7]; Homo sapiens, Z-138, 72 h) [µM] | IC50 ([8]; Homo sapiens, K562, 72 h) [µM] | further results
1 | COc1cc([C@@H]2c3cc4c(cc3[C@@H](O[C@@H]3O[C@@H]5CO[C@@H](C)O[C@H]5[C@H](O)[C@H]3O)[C@H]3COC(=O)[C@H]23)OCO4)cc(OC)c1O [ETO, etoposide, reference compound] | 1.37 | 0.37 | 4.6 | 0.6 | 2.55 | 0.1 | 0.05 | 2.35 | –
2 | Cn1c(-c2ccccc2)nc2cc(-c3ccc([N+](=O)[O-])cc3)cnc21 [Compound 23, 3-methyl-6-(4-nitrophenyl)-2-phenyl-3H-imidazo [4,5-b]pyridine] | > 100 | 89.9 | > 100 | > 100 | > 100 | > 100 | 72.9 | > 100 | –
3 | Cn1c(-c2ccccc2)nc2cc(-c3ccc(N)cc3)cnc21 [Compound 24, 4-(3-methyl-2-phenyl-3H-imidazo [4,5-b]pyridin-6-yl)aniline] | 55.8 | 36.2 | 81.6 | 78.5 | > 100 | 63 | – | 62.2 | IC50 [7]: 54.4 µM
4 | CCN(CC)CCCC(C)Nc1ccnc2cc(Cl)ccc12 (stereo not shown) [Chloroquine, chloroquine] | – | – | – | – | – | – | – | – | EC50 (Zika virus (ZIKV)): 13.4 µM; EC50 [9]: > 100 µM; EC50 (yellow fever virus (YFV)): > 100 µM; CC50 (in vitro [10]): 55.8 µM; EC50 (Sindbis virus (SINDV)): 8 µM
5 | Nc1ccc(-c2cnc3[nH]c(-c4ccccc4)nc3c2)cc1 [Compound 17, 4-(2-phenyl-3H-imidazo [4,5-b]pyridin-6-yl)aniline] | 73 | 41.5 | > 100 | 76.4 | > 100 | – | 40.9 | 83.2 | IC50 [6]: 26.6 µM
6 | Nc1ccc(-c2cnc3[nH]c(-c4ccccc4)nc3c2)cc1 [Compound 18, 4-(2-phenyl-3H-imidazo [4,5-b]pyridin-6-yl)aniline hydrochloride] | – | – | – | – | – | – | – | – | IC50 [1]: 63.6 µM; IC50 [2]: 46.1 µM; IC50 [3]: > 100 µM; IC50 [4]: 70.9 µM; IC50 [5]: > 100 µM; IC50 [6]: 7.29 µM; IC50 [7]: 34.8 µM; IC50 [8]: 84.7 µM
7 | Cn1c(-c2ccccc2)nc2cc(-c3ccc(N)cc3)cnc21 [Compound 25, 4-(3-methyl-2-phenyl-3H-imidazo [4,5-b]pyridin-6-yl)aniline hydrochloride] | – | – | – | – | – | – | – | – | IC50 [1]: 59.1 µM; IC50 [2]: 23.7 µM; IC50 [3]: > 100 µM; IC50 [4]: > 100 µM; IC50 [5]: 56.2 µM; IC50 [6]: 67.3 µM; IC50 [7]: 25.5 µM; IC50 [8]: 39 µM
8 | COc1ccc(-c2cnc3[nH]c(-c4ccccc4)nc3c2)cc1 [Compound 14, 6-(4-methoxyphenyl)-2-phenyl-3H-imidazo [4,5-b]pyridine] | > 100 | 69.4 | > 100 | > 100 | > 100 | > 100 | > 100 | > 100 | –
9 | CC(=O)N[C@H]1[C@H]([C@H](O)[C@H](O)CO)OC(C(=O)O)=C[C@@H]1N=C(N)N [Zanamivir, zanamivir] | – | – | – | – | – | – | – | – | CC50 (in vitro [11]): > 100 µM; EC50 [12]: 0.5 µM; EC50 [13]: 68.1 µM; EC50 [14]: 0.3 µM
10 | CC(N)C12CC3CC(CC(C3)C1)C2 (stereo not shown) [Rimantadin, rimantadine] | – | – | – | – | – | – | – | – | CC50 (in vitro [11]): > 100 µM; EC50 [12]: > 100 µM; EC50 [13]: 0.06 µM; EC50 [14]: 0.08 µM
11 | Cn1c(-c2ccccc2)nc2cc(-c3ccc(C#N)cc3)cnc21 [Compound 21, 4-(3-methyl-2-phenyl-3H-imidazo [4,5-b]pyridin-6-yl)benzonitrile] | > 100 | 83.1 | > 100 | > 100 | > 100 | > 100 | 62.8 | > 100 | –
12 | NC(=O)c1ncn([C@@H]2O[C@H](CO)[C@@H](O)[C@H]2O)n1 [Ribavirin, ribavirin] | – | – | – | – | – | – | – | – | CC50 (in vitro [11]): > 250 µM; EC50 [15]: 35.7 µM; EC50 [12]: 5.2 µM; EC50 [16]: 217 µM; EC50 (yellow fever virus (YFV)): 235 µM; EC50 [17]: 45.8 µM; EC50 [18]: 83.3 µM; CC50 (in vitro [10]): > 250 µM; EC50 [13]: 12.3 µM; EC50 [19]: 97.6 µM; EC50 [14]: 6.6 µM
13 | COc1c(C)c2c(c(O)c1C/C=C(\C)CCC(=O)O)C(=O)OC2 [Mycoph. acid, mycophenolic acid] | – | – | – | – | – | – | – | – | EC50 [15]: 0.8 µM; EC50 (Zika virus (ZIKV)): 25.2 µM; EC50 [9]: > 100 µM; EC50 (yellow fever virus (YFV)): 0.6 µM; CC50 (in vitro [10]): > 100 µM; EC50 (Sindbis virus (SINDV)): > 100 µM
14 | c1ccc(-c2cnc3[nH]c(-c4ccccc4)nc3c2)cc1 [Compound 12, 2.6-diphenyl-3H-imidazo[4,5-b]pyridine] | > 100 | 52.3 | > 100 | > 100 | > 100 | 35.3 | 30.1 | > 100 | –
15 | O=[N+]([O-])c1ccc(-c2cnc3[nH]c(-c4ccccc4)nc3c2)cc1 [Compound 16, 6-(4-nitrophenyl)-2-phenyl-3H-imidazo[4,5-b]pyridine] | > 100 | 79 | > 100 | > 100 | > 100 | > 100 | 65.2 | > 100 | –
16 | COc1ccc(-c2cnc3c(c2)nc(-c2ccccc2)n3C)cc1 [Compound 20, 6-(4-methoxyphenyl)-3-methyl-2-phenyl-3H-imidazo [4,5-b]pyridine] | > 100 | 62.5 | > 100 | > 100 | > 100 | > 100 | 86 | > 100 | –
